16 compounds from the supplement of paper PMC10627819 can be followed below.

SMILES strings stand for the structures.

Assay in all cases: Bliss interaction score (quartile over a dose matrix) (fitness difference); higher = more antagonism (negative = synergy)
The subject of one test is S. aureus Newman. In short, it runs like this: (§1)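 Each OD595 reading at entry into stationary phase was scaled to the robust mean of the untreated wells on its plate, with a ceiling of 1. These ratios define fitness, and single-drug fitness was inferred from combinations. The Bliss score compares observed fitness with the product-based expectation and is reported as quartiles across all replicate types, technical, biological and donor/recipient.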

The test system of the next test is S. aureus DSM 20231. A digest of the protocol:
as §1

Another test deals with S. pneumoniae D39V. In short, it runs like this:
as §1

A further test relates to B. subtilis 168. A digest of the protocol:
as §1
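Also: first quartile when negative (synergy) and third quartile when positive (antagonism).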

For the compound `CC(=O)Oc1ccccc1C(=O)O` [Acetylsalicylicacid] + O=C(O)c1cn(C2CC2)c2cc(N3CCNCC3)c(F)cc2c1=O [Ciprofloxacin], the Bliss interaction score in the test with S. aureus Newman is 0.158; in the test on S. aureus DSM 20231, 0.142; in the test with S. pneumoniae D39V, 0.144; in the test with B. subtilis 168 it was 0.146.
For the compound `N#CC(C#N)=NNc1cccc(Cl)c1` [CCCP] + CN(N=O)C(=O)N[C@@H](C=O)[C@@H](O)[C@H](O)[C@H](O)CO [Streptozotocin], the Bliss interaction score with S. aureus Newman is -0.0707; in the test on S. aureus DSM 20231, -0.0689; in the test on S. pneumoniae D39V, 0.0737; with B. subtilis 168, 0.0172.
The like results for `O=C(O)c1cn(C2CC2)c2cc(N3CCNCC3)c(F)cc2c1=O` [Ciprofloxacin] + CN[C@H](CC(C)C)C(=O)N[C@H]1C(=O)N[C@@H](CC(N)=O)C(=O)N[C@H]2C(=O)N[C@H]3C(=O)N[C@H](C(=O)N[C@H](C(=O)O)c4cc(O)cc(O)c4-c4cc3ccc4O)[C@H](O[C@H]3C[C@](C)(N)[C@@H](O)[C@H](C)O3)c3ccc(c(Cl)c3)Oc3cc2cc(c3O[C@@H]2O[C@H](CO)[C@@H](O)[C@H](O)[C@H]2O[C@H]2C[C@](C)(NCc3ccc(-c4ccc(Cl)cc4)cc3)[C@@H](O)[C@H](C)O2)Oc2ccc(cc2Cl)[C@H]1O [Oritavancin] were, in that order, -0.0474, -0.0468, 0.0622 and -0.0274.
The like results for `CC(=O)Oc1ccccc1C(=O)O` [Acetylsalicylicacid] + CN(C)c1cc(NC(=O)CNC(C)(C)C)c(O)c2c1C[C@H]1C[C@H]3[C@H](N(C)C)C(O)=C(C(N)=O)C(=O)[C@@]3(O)C(O)=C1C2=O [Tigecycline] were, in that order, -0.0593, -0.088, -0.0515 and -0.11.
On the same counts, the results for `N#CC(C#N)=NNc1cccc(Cl)c1` [CCCP] + CC[C@H]1OC(=O)[C@H](C)C(=O)[C@H](C)[C@@H](O[C@@H]2O[C@H](C)C[C@H](N(C)C)[C@H]2O)[C@](C)(OC)C[C@@H](C)C(=O)[C@H](C)[C@H]2N(CCCCn3cnc(-c4cccnc4)c3)C(=O)O[C@]12C [Telithromycin] are -0.0206, -0.0246, -0.0245 and -0.0441.
`N#CC(C#N)=NNc1cccc(Cl)c1` [CCCP] + CN1C2=CC=CC=C2N=C3C1=CC=CC3=O [Pyocyanin]: the Bliss interaction score with S. aureus Newman is -0.0376; in the test with S. aureus DSM 20231, -0.0215; in the test on S. pneumoniae D39V it was -0.0451; in the test with B. subtilis 168, -0.0772.
On the same counts, the results for `CO/N=C(\C(=O)N[C@@H]1C(=O)N2C(C(=O)O)=C(COC(N)=O)CS[C@H]12)c1ccco1` [Cefuroxime] + CCC[C@@H]1C[C@@H](C(=O)N[C@@H]([C@H]2O[C@H](SC)[C@H](O)[C@@H](O)[C@H]2O)[C@H](C)Cl)N(C)C1 [Clindamycin] are -0.0892, -0.156, 0.0539 and -0.048.
The like results for `N#CC(C#N)=NNc1cccc(Cl)c1` [CCCP] + CN[C@@H]1[C@H](O)[C@H](NC)[C@H]2O[C@@]3(O)C(=O)C[C@@H](C)O[C@H]3O[C@@H]2[C@H]1O [Spectinomycin] were, in that order, -0.0505, 0.0771, 0.0475 and 0.0317.
On the same counts, the results for `CC(=O)Oc1ccccc1C(=O)O` [Acetylsalicylicacid] + COc1c(N2C[C@@H]3CCCN[C@@H]3C2)c(F)cc2c(=O)c(C(=O)O)cn(C3CC3)c12 [Moxifloxacin] are 0.114, 0.114, 0.0628 and -0.0213.
`Cc1ncc([N+](=O)[O-])n1CCO` [Metronidazole] + CN[C@H](CC(C)C)C(=O)N[C@H]1C(=O)N[C@@H](CC(N)=O)C(=O)N[C@H]2C(=O)N[C@H]3C(=O)N[C@H](C(=O)N[C@H](C(=O)O)c4cc(O)cc(O)c4-c4cc3ccc4O)[C@H](O[C@H]3C[C@](C)(N)[C@@H](O)[C@H](C)O3)c3ccc(c(Cl)c3)Oc3cc2cc(c3O[C@@H]2O[C@H](CO)[C@@H](O)[C@H](O)[C@H]2O[C@H]2C[C@](C)(NCc3ccc(-c4ccc(Cl)cc4)cc3)[C@@H](O)[C@H](C)O2)Oc2ccc(cc2Cl)[C@H]1O [Oritavancin]: the Bliss interaction score in the test with S. aureus Newman is 0.0752; in the test with S. aureus DSM 20231, 0.0377; in the test with S. pneumoniae D39V it was -0.0396; in the test with B. subtilis 168 it was -0.0222.
The like results for `CN(C)[C@@H]1C(O)=C(C(N)=O)C(=O)[C@@]2(O)C(O)=C3C(=O)c4c(O)ccc(Cl)c4[C@@](C)(O)[C@H]3C[C@@H]12` [Clortetracycline] + CC[C@H]1OC(=O)[C@H](C)[C@@H](O[C@H]2C[C@@](C)(OC)[C@@H](O)[C@H](C)O2)[C@H](C)[C@@H](O[C@@H]2O[C@H](C)C[C@H](N(C)C)[C@H]2O)[C@](C)(O)C[C@@H](C)C(=O)[C@H](C)[C@@H](O)[C@]1(C)O [Erythromycin] were, in that order, -0.0583, -0.118, 0.0677 and -0.214.
On the same counts, the results for `O=C(O)c1cn(C2CC2)c2cc(N3CCNCC3)c(F)cc2c1=O` [Ciprofloxacin] + CC[C@H]1OC(=O)[C@H](C)C(=O)[C@H](C)[C@@H](O[C@@H]2O[C@H](C)C[C@H](N(C)C)[C@H]2O)[C@](C)(OC)C[C@@H](C)C(=O)[C@H](C)[C@H]2N(CCCCn3cnc(-c4cccnc4)c3)C(=O)O[C@]12C [Telithromycin] are 0.0334, 0.0454, 0.0763 and 0.149.
On the same counts, the results for `CC1(C)S[C@@H]2[C@H](NC(=O)Cc3ccccc3)C(=O)N2[C@H]1C(=O)O` [PenicillinG] + CN[C@H](CC(C)C)C(=O)N[C@H]1C(=O)N[C@@H](CC(N)=O)C(=O)N[C@H]2C(=O)N[C@H]3C(=O)N[C@H](C(=O)N[C@H](C(=O)O)c4cc(O)cc(O)c4-c4cc3ccc4O)[C@H](O)c3ccc(c(Cl)c3)Oc3cc2cc(c3O[C@@H]2O[C@H](CO)[C@@H](O)[C@H](O)[C@H]2O[C@H]2C[C@](C)(N)[C@H](O)[C@H](C)O2)Oc2ccc(cc2Cl)[C@H]1O [Vancomycin] are 0.0603, -0.0205, -0.162 and -0.039.
In the case of `N#CC(C#N)=NNc1cccc(Cl)c1` [CCCP] + CN(C)C(=O)C(CCN1CCC(O)(c2ccc(Cl)cc2)CC1)(c1ccccc1)c1ccccc1 [Loperamide], the Bliss interaction score was 0.0942 in the test with S. aureus Newman, -0.0407 in the test with S. aureus DSM 20231, -0.227 in the test with S. pneumoniae D39V and 0.0251 in the test with B. subtilis 168.
On the same counts, the results for `CC(=O)Oc1ccccc1C(=O)O` [Acetylsalicylicacid] + CC1=C\[C@@H](O)CC(=O)Cc2nc(co2)C(=O)N2CCC=C2C(=O)O[C@H](C(C)C)[C@H](C)/C=C/C(=O)NC\C=C\1 [Virginiamycin M1] are -0.0537, -0.0657, -0.0556 and -0.0602.
The like results for `CN(C)[C@@H]1C(O)=C(C(N)=O)C(=O)[C@@]2(O)C(O)=C3C(=O)c4c(O)ccc(Cl)c4[C@@](C)(O)[C@H]3C[C@@H]12` [Clortetracycline] + Oc1cc(Cl)ccc1Oc1ccc(Cl)cc1Cl [Triclosan] were, in that order, 0.021, -0.0936, 0.117 and 0.0578.
